From patent US7514421B2, “Use of an IBAT inhibitor for the treatment of constipation” (Albireo AB, priority 2003, dated 2009) come the findings set out here.

The test system of this test is constipated dog. Briefly: Buenos dog model for constipation (low fibre/high protein diet, 20 g meat/kg dog/day). Type of test: in vivo. The note with it: constipated dogs. The text has this: As stated hereinbefore the compounds defined in the present invention are useful in the treatment of functional constipation and C-IBS. These properties may be assessed, for example, using models known in the art: • Buenos dog model for constipation, (Hepato-gasteroenterology, 1980, 27, 381-389).
Once constipation has been induced the animals can be dosed with an IBAT inhibitor to asses the ability of the IBAT inhibitor to relieve the constipation.
The following data was generated using the Buenos dog model (method described in the publication above) with the modification that the dogs were given 20 g meat/kg dog/day. The result is calculated as mean value of the increase of faeces during the three treatment days subtracted with the entry value (day before start of treatment with the IBAT inhibitor). The dogs were judge as constipation if there faeces amount per day was below 30 gram.

Turning to `CCCCC1(CCCC)CN(c2ccccc2)c2cc(SC)c(OCC(=O)N[C@@H](C(=O)N[C@H](C(=O)O)[C@@H](C)O)c3ccc(O)cc3)cc2S(=O)(=O)N1` [Compound 2, 1,1-Dioxo-3,3-dibutyl-5-phenyl-7-methylthio-8-(N-{(R)-α-[N-((S)-1-carboxy-2-(R)-hydroxypropyl)carbamoyl]-4-hydroxybenzyl}carbamoylmethoxy)-2,3,4,5-tetrahydro-1,2,5-benzothiadiazepine], the “Result: mean increase of faeces during the three treatment days subtracted with the entry value” (“Result: mean increase” below) came out at 23 ± 11 g/day (dose 1.5 μmol/kg, 2 animals) and 23 ± 11 g/day (dose 1.5 μmol/kg, 2 animals, listed as compound 2).

`CCCCC1(CCCC)CN(c2ccccc2)c2cc(SC)c(OCC(=O)N[C@@H](C(=O)N[C@H](C(=O)O)C(C)C)c3ccc(O)cc3)cc2S(=O)(=O)N1` [Compound 3, 1,1-Dioxo-3,3-dibutyl-5-phenyl-7-methylthio-8-(N-{(R)-α-[N-((S)-1-carboxy-2-methylpropyl)carbamoyl]-4-hydroxybenzyl}carbamoylmethoxy)-2,3,4,5-tetrahydro-1,2,5-benzothiadiazepine]: the “Result: mean increase” value (dose 1.5 μmol/kg, 2 animals) is 39 ± 2 g/day and the “Result: mean increase” value (dose 1.5 μmol/kg, 2 animals, listed as compound 3) is 39 ± 2 g/day.

Take `CCCCC1(CCCC)CN(c2ccccc2)c2cc(SC)c(OCC(=O)N[C@@H](C(=O)NCCS(=O)(=O)O)c3ccc(O)cc3)cc2S(=O)(=O)N1` [Compound 1, 1,1-Dioxo-3,3-dibutyl-5-phenyl-7-methylthio-8-(N-{(R)-α-[N-(2-sulphoethyl)carbamoyl]-4-hydroxybenzyl}carbamoylmethoxy)-2,3,4,5-tetrahydro-1,2,5-benzothiadiazepine]: the “Result: mean increase” value (dose 5 μmol/kg, 3 animals) is recorded as 38 ± 7 g/day and the “Result: mean increase” value (dose 5 μmol/kg, 3 animals, listed as compound 1) came out at 38 ± 7 g/day.
